Experimental findings from US4759917A, “Oxidative dissolution of gallium arsenide and separation of gallium from arsenic” (priority 1987, dated 1988) are described below.

A short description of data set [1]: Example 4: oxidizing agents with N-methylnonanohydroxamic acid as complexing agent on gallium arsenide (Table 5). As for the experimental part: A series of procedures were conducted to test effectiveness of various complexing agents with hydrogen peroxide to oxidize and effect dissolution of gallium arsenide. A 0.5 gram amount of GaAs powder was added to a 50 ml beaker with 20 ml deionized water. The complexing agent was added with stirring, followed by addition of 5 ml 30% hydrogen peroxide in water with stirring. Stirring was continued for about 10 minutes with gradual heating on a hot plate to 85° C., with observation for reaction. The mixtures were then allowed to stand at room temperature for about four days with observation for further changes, and the percentage of the starting gallium which had dissolved was determined by analysis of the liquid by atomic absorption.
Using the procedure of Example 2 and 3.0 ml of N-methylnonanohydroxamic acid as complexing agent, a number of oxidizing agents were employed with gallium arsenide, with results as reported in Table 5.

A short description of data set [2]: Hydrolysis of hydroxamic acids in gallium extraction, washing and stripping procedures (Table 2). The class given is physicochemical. Conditions: hydrolysis after gallium extraction, spectrophotographic analysis. As for the experimental part:
The extent of hydrolysis of some hydroxamic acids used in some gallium extraction, washing and stripping procedures was determined by spectrophotographic analysis of the solution after completion of the procedures, with results as reported in Table 2.
The procedures and further information on the hydrolytic stability of N-alkyl hydroxamic acids are reported in the aforesaid copending application Ser. No. 937,849. The hydrolytic stability of the N-alkyl hydroxamic acids is an advantage for their use in the present invention.

A short description of data set [3]: Aqueous solubilities of N-alkylalkano and N-H hydroxamic acids (Table 1). It counts as physicochemical. The text has this: It is desirable that the N-organo hydroxamic acid have low solubility in water in order to effect ready separation of the chelated gallium from the aqueous oxidizing medium.
For the extraction to occur, it is necessary that the extractant have some slight solubility in the aqueous Ga-containing medium.

Data set [4] is described as follows: Viscosity of hydroxamic acids. The class given is physicochemical. The note with it: neat, without a solvent. The source says: When a liquid hydroxamic acid compound is used, it can be used neat as the organic phase in the oxidation-dissolution reaction and the subsequent extraction-separation. However it will often be preferable to use an organic solvent as an extender, or to lower viscosity or lessen absorption or resulting losses of the hydroxamic acid, or to promote phase separation, and the organic phase often includes a liquid hydrocarbon solvent. Such solvent must be substantially water immiscible so as to be separable from the aqueous solutions containing the arsenic values. Suitable solvents include aliphatic and aromatic hydrocarbons such as kerosene, hexane, toluene, methylene chloride, chloroform, carbon tetrachloride, xylene, naphtha, cyclohexane, Chevron Ion Exchange solvent, Kermac 470-B. Solvesso 100 and the like. Kerosene and other low viscosity, high flash point petrolleum distillates are preferred. Generally, the hydroxamic compounds will be present in the organic phase in an amount of at least about 2% by weight. Preferably, the N-alkyl alkanohydroxamic compound will be present in the amount of 2 to 40%, more preferably about 10 to 35%, by weight based on the total organic phase. Viscosity and/or solubility serves to fix the upper limit of the content of said hydroxamic compound which will depend upon the structure of the compound employed. […]

Data set [5] is described as follows: Example 2: complexing agents with hydrogen peroxide to oxidize and dissolve gallium arsenide (Table 3). Conditions: for effectiveness in reaction and dissolution of gallium arsenide: H2O2 as oxidizing agent; for Initial Result: time to complete reaction: heating to 85° C., H2O2.
The nature of data set [6]: Example 1: gallium recovery from Lap Sludge by simultaneous dissolution and separation.
Data set [7] in a line: Solubility in a typical phosphate rock treater dust leachate. The class given is physicochemical. The note with it: leachate with high concentrations of Al, Zn, Fe, phosphate and other ions. The source says: It wlll be noted that most of the N-alkyl hydroxamic acids have very low solubilities in aqueous media, with the solubility tending to increase with decreasing number of carbon atoms in the hydroxamic acids. […] This appreciable but limited solubility appears responsible for the effectiveness of N-methylnonanohydroxamic acid in extracting Ga from such leachates, with regard to both rate and extent of the extraction compared to higher carbon number N-alkyl hydroxamic acids. For the extraction to occur, it is necessary that the extractant have some slight solubility in the aqueous Ga-containing medium.

The mark [8] stands for this setting: 3.0 ml N-methylnonanohydroxamic acid as complexing agent.
[9] abbreviates: 30% H2SO4 strip of organic phase.
Setting [10] is: aqueous phase plus dilute nitric acid and other washes.

Several values for one entry are separate records, joined by “and”; a condition that tells them apart may be missing. Equal values may be shown once.

As for `O=[N+]([O-])O` [HNO3 conc., nitric acid], in data set [1] (setting [8]), the “Result: time to complete reaction” value is 50 s. Besides, the “Result: time to complete reaction, no complexing agent” value in data set [1] (no complexing agent) amounted to 20 min.
Turning to “naphthenohydroxamic acid [N--H naphthenohydroxamic acid, reference compound]”, the “% Decomposition” value in data set [2] came out at 45.0%.
On to `CCCCCCCCCCCCCCCC(=O)N(C)O` [N--methylhexadecanohydroxamic acid], for which, in data set [3], the “Solubility (25° C.)” value worked out at 1.3 ± 1 ppm and the “Solubility (25° C.), molarity” value is reported as 4.60 × 10^-6 molarity.
In the case of “N-ethyl naphthenohydroxamic acid [N--Ethyl naphthenohydroxamic acid]”, the “% Decomposition” value in data set [2] was -0.53%.
Still for that read-out and setting: next, “N-n-propyl naphthenohydroxamic acid [N--Propyl naphthenohydroxamic acid]”: “+0.74%”.
For `CCCCCCCCCC(=O)N(O)CCCCCC` [N--hexyldecanohydroxamic acid], in data set [3], the “Solubility (25° C.)” value is on record as 1.6 ± 1 ppm and the “Solubility (25° C.), molarity” value is reported as 5.71 × 10^-6 molarity.
The corresponding values for “versatohydroxamic acid [versatohydroxamic acid (not N--alkyl), reference compound]” are 1600. ppm and 8.54 × 10^-3 molarity.
Regarding `II`, the “Result: time to complete reaction, no heating” value in data set [1] (setting [8]) worked out at 60 s.
For the compound neotridecanohydroxamic acid, in data set [3], the “Solubility (25° C.)” value is 328. ppm and the “Solubility (25° C.), molarity” value is given as 1.43 × 10^-3 molarity.
Taken in the same sequence, the figures for `CCCCCCCCCC(=O)N(O)C(C)C` [N--isopropyldecanohydroxamic acid] were 3.9 ± 1 ppm and 1.68 × 10^-5 molarity.
Take N-methyl isostearohydroxamic acid: in data set [4], the viscosity result is “sufficiently low viscosity that they can be used neat”.
As for `CCCCCCCCCC(CCCCCCCCC)N(O)C(=O)C1CCCCC1` [N-(1-nonyldecyl) cyclohexanohydroxamic acid], in data set [3], the “Solubility (25° C.)” value stood at 0.7 ± 1 ppm and the “Solubility (25° C.), molarity” value is reported as 1.7 × 10^-6 molarity.
Regarding “N-methyl naphthenohydroxamic acid [N--Methyl naphthenohydroxamic acid]”, in data set [2], the “% Decomposition” value is “+0.14%”. The “time to complete dissolution after addition to Test N mixture” value in data set [5] (2.98 grams added to Test N mixture after no reaction in 11.5 min.) was determined as 60 s. Moreover, in data set [5], the “effectiveness in reaction and dissolution of gallium arsenide” value (“effectiveness” below) is “rapid reaction and dissolution of the gallium arsenide”.
Turning to `CCCCCCCCCC(=O)N(C)O` [N--methyldecanohydroxamic acid], in data set [3], the “Solubility (25° C.)” value was 111. ppm and 82. ppm.
Turning to `CCCCCCCCC(=O)N(C)O` [N-methylnonanohydroxamic acid], in data set [3], the “Solubility (25° C.)” value is reported as 409. ppm and the “Solubility (25° C.), molarity” value is given as 2.18 × 10^-3 molarity. In data set [5], the “% Ga in Solution After 4 Days” value was 100%; the “effectiveness” value is “effective complexing agent”. In addition, in data set [6] (setting [9]), the “As in combined aqueous acid stripping solutions” value was 15 ppm and the “Ga in combined aqueous acid stripping solutions” value is listed as 1100 ppm. For the same compound, in data set [6] (setting [10]), the “As in combined aqueous phase and wash solutions” value was 2510 ppm; the “Ga in combined aqueous phase and wash solutions” value is 114 ppm. The “arsenic and gallium in water washings of organic phase” value in data set [6] (detection limit less than 1 ppm for each element) is on record as “Neither arsenic nor gallium was detectable”. In addition, the “Ga recovered per gram of starting sludge” value in data set [6] (starting sludge 17.7 mg Ga/gram) was determined as 17.8 mg Ga per gram. The “As recovered per gram of starting sludge” value in data set [6] (starting sludge analyzed 13.4 mg As/gram) was 17.3 mg As/gram. In addition, in data set [7], the “solubility in a typical phosphate rock treater dust leachate” value came to 20 ppm and the “solubility in a typical phosphate rock treater dust leachate, molarity” value was 1.07×10^-4 molarity.
Regarding `O=S(=O)([O-])OOS(=O)(=O)[O-].[K+].[K+]` [Potassium persulfate], the Result result in data set [1] (setting [8]) is “No reaction”.
As to `O=C(O)CN(CC(=O)O)CC(=O)O` [Sodium nitrilo triacetate], in data set [5], the “% Ga in Solution After 4 Days” value amounted to 100% and the “Initial Result: time to complete reaction” value amounted to 3 min.
Consider `[K+].[OH-]` [KOH, potassium hydroxide], for which, in data set [5], the “Initial Result” value is listed as “No reaction”.
In the case of `BrBr` [liquid bromine, bromine], the “Result: time to complete reaction, no heating” value in data set [1] (setting [8]) is 37 s.
With `O=P(O)(O)CCP(=O)(O)O` [H2 O3 PCH2 CH2 PO3 H2, ethylene diphosphonic acid], in data set [5], the “effectiveness” value was “an insoluble gallium complex may form and precipitate from the aqueous oxidizing medium”; the “Initial Result: time to complete reaction” value was 3 min.
